Measured values reported in patent US4154730A, “Novel 17-spirosultines” (Roussel Uclaf, priority 1976, dated 1979).

What was measured:
[1] = biological target: T1, progesterone receptor (hormonal receptor of rabbit uterus cytosol) (Oryctolagus cuniculus, UniProt P06186); assay: Progestomimetic activity by the method of hormonal receptors: displacement of tritiated product R in uterus cytosol; type: binding; conditions: tritiated 17,21-dimethyl-19-nor-Δ4,9-pregnadiene-3,20-dione, 0° C., 2 hours, progesterone = 100
T1 construct: The uterus was removed and homogenized in a buffered mixture; from tissue; host or cells: uterus cytosol (105,000 g supernatant) of impuberic rabbits primed with estradiol
T1 sequence (P06186 1-930): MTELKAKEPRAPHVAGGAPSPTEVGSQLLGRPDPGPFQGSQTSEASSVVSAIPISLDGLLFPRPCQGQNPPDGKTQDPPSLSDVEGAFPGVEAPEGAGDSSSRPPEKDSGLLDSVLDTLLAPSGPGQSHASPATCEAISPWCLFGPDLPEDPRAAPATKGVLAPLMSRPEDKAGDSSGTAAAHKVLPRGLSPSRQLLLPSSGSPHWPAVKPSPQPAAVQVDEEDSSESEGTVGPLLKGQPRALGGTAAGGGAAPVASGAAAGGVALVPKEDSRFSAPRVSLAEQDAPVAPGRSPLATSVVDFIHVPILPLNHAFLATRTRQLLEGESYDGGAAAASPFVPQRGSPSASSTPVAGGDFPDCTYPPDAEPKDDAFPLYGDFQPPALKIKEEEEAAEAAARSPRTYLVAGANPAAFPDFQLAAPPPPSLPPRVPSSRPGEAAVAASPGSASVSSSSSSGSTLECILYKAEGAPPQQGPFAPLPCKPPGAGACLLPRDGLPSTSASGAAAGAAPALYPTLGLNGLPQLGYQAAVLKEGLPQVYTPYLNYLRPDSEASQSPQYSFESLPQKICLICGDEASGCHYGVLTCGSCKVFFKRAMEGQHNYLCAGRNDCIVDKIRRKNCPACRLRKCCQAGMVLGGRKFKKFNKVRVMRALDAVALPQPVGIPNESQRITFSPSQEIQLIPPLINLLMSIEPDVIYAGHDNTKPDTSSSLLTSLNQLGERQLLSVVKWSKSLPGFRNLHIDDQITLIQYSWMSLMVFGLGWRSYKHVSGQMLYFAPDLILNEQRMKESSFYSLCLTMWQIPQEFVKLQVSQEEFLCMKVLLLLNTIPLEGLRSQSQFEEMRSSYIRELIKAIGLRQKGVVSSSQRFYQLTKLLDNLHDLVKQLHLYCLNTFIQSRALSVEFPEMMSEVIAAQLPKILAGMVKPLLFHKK
Protocol: Ster. Biochem., Vol. 6 (1975), p. 615-622 and Physiology and Genetics of Reproduction, part A (1975), p. 143-160]. Impuberic rabbits received percutaneously 25 γ of estradiol and 5 days later, the animals were killed. The uterus was removed and homogenized in a buffered mixture of 10 mM of tromethamine, 0.25 M of saccharose and sufficient hydrochloric acid for a pH of 7.4. The homogenate was centrifuged at 105,000 g for one hour and the liquid surnageant or cytosol was adjusted to obtain a dilution of 1:50 (weight of uterus to volume). […] B/T max. is the percentage of tritiated product R bound when no product was added and B/T min. is the percentage of tritiated product R bound when the maximum quantity of cold product R is added. The intersections of line I50 and the curves permit the determination of the CP and CX values. CP is the concentration of cold progesterone which inhibits by 50% the fixation of tritiated product R and CX is the concentration of test product which inhibits by 50% the fixation of tritiated product R. The relative affinity of the test product or RLA is determined by the formula [formula] and the results are reported in Table I.

[2] = test system: activity of monoacetate of aldosterone (urinary sodium/potassium ratio); assay: Antialdosteronic activity in surrenalectomized rats; type: in vivo, rat (Sprague Dawley); conditions: male surrenalectomized rats, test product 5 mg/kg subcutaneously, urine collected for 4 hours
Protocol: Male rats of the Sprague Dawley strain weighing about 180 g were subjected to surrenalectomy and at this moment, the rats received a drink of physiological serum. After about 2 days, the animals were fasted for 16 hours and then received a drink of an aqueous 5% glucose solution. The test products were administered subcutaneously at about 16 hours in the form of a solution or suspension in a 0.25% aqueous carboxymethyl cellulose solution containing Tween 80. One hour later, the animals received on the one hand intraperitoneally a hydrosaline surcharge at a dose of 5 ml/per rat of a 0.9% physiological serum and on the other hand subcutaneously 1 μg/kg of the monoacetate of aldosterone in a 2.5% alcoholic solution. The rats were placed in diuresis cages without food or drink for 4 hours and after this time, a forced urination was effected by pressure on the bladder. The volume of the obtained urine was adjusted to 50 ml and the amounts of sodium and potassium present was determined by an autoanalyzer. The results are expressed as a percentage of inhibition of the activity of 1 μg/kg of subcutaneously injected monoacetate of aldosterone by the ratio of sodium concentration to potassium concentration of the surrenalectomized rats.

Row | RLA (relative affinity of the test product, from CP and CX) [1] | Structure (SMILES) | percentage of inhibition of the activity of 1 μg/kg of subcutaneously injected monoacetate of aldosterone (sodium/potassium ratio) [2]
1 | 400 | C[C@]12C=CC3=C4CCC(=O)C=C4CC[C@H]3[C@@H]1CC[C@@]21CCS(=O)O1 (stereo partly drawn) [product B, B isomer of (17R) 2'-oxidospiro-[Δ^4,9,11-estratriene-17,5'-(1',2')-oxathiolane]-3-one] | 
2 | 280 | C[C@]12CCC3=C4CCC(=O)C=C4CC[C@H]3[C@@H]1CC[C@@]21CCS(=O)O1 (stereo partly drawn) [product A, B isomer of (17R) 2'-oxidospiro-[Δ^4,9-estradiene-17,5'-(1',2')-oxathiolane]-3-one] | 88%
